Results from article PMC6383929, “Design, antimicrobial activity and mechanism of action of Arg-rich ultra-short cationic lipopeptides” (PLoS ONE, 2019).
Converted amounts (≈) assume the structure as drawn. Where two headings read alike, the source gives them in different places. Where a SMILES comes first, the peptide text is derived from it. The star is where a group is joined. Myristoyl = CCCCCCCCCCCCCC(=O)*; Lauroyl = CCCCCCCCCCCC(=O)*; Decanoyl = CCCCCCCCCC(=O)*; Octanoyl = CCCCCCCC(=O)*; Hexanoyl = CCCCCC(=O)*

Assays:
[1] = test system: S. aureus ATCC 25923; format: cell-based, Staphylococcus aureus
Text: (§1) Bacteria used in this study were Escherichia coli ATCC 25922 and O18K1H7, Staphylococcus aureus ATCC 25923 and ATCC 29213, Pseudomonas aeruginosa ATCC 27853, Staphylococcus epidermidis ATCC 12228, Enterococcus faecalis ATCC 29212, Bacillus subtilis DSM 4181, Listeria monocytogenes DSM 20600, Salmonella typhimurium ATCC 14028, Acinetobacter baumannii ATCC 19606 and 17978, Klebsiella pneumoniae ATCC 13883 and 700603, Stenotrophomonas maltophilia ATCC 13637 and Burkholderia cenocepacia J2315. In addition to reference strains, a clinical isolate of E. faecalis vancomycin-resistant (VREF, strain M), and three clinical isolates of S. aureus methicillin-resistant (MRSA, strains E, G and 11), kindly provided by Dr. Lucilla Dolzani, were used. All MRSA strains are resistant to GEN, IPM, OXA, PEN, CIP and CEF; the S. aureus E strain is also resistant to CLI and ERY. VREF strain is resistant to AMK, ATM, GEN, NET, PEN, TEC, TET, TOB and VAN.
(§2) For the assays, overnight bacterial cultures were diluted 1:30 in fresh Mueller-Hinton Broth (MHB, Difco) and incubated at 37°C with shaking for approximately 2h.
(§3) The antimicrobial activity of USCLs was determined by the Minimum Inhibitory Concentration (MIC) assay, according to the guidelines of CLSI (Clinical & Laboratory Standards Institute) and described in [30, 31]. Briefly, the assays were performed in 96-well microplates in appropriate broth (MHB or SAB). […] For bacteria, a mid-log phase bacterial suspension at 2.5 × 10^5 CFU/mL in MHB was used, and the microplates incubated at 37°C for 24h. The fungal suspension in SAB broth was used at a final concentration of 5 × 10^4 cells/mL. Microplates were then incubated at 30°C for 48h. The MIC value was taken as the lowest concentration of USCLs resulting in the complete inhibition of visible bacterial or fungal growth after appropriate incubation time. Results derive from at least three independent experiments carried out in duplicate.

[2] = test system: P. aeruginosa ATCC 27853; format: cell-based, Pseudomonas aeruginosa
Text: as §1, §2, §3

[3] = RP-HPLC retention time (hydrophobicity); format: physicochemical; conditions: stated to reliably reflect the hydrophobicity in aqueous solution, assessed and provided by GenScript
Protocol: GenScript (Piscataway, NJ, USA) carried out the custom synthesis of USCLs by using high efficient solid phase peptide synthesis. The fatty acid was conjugated to the N-terminus of the peptide using the same procedure followed to attach protected amino acids to the growing peptide chain for synthesis. The purity (>90%), sequence and molecular weight of USCLs were assessed and provided by GenScript using RP-HPLC and ESI-MS. USCLs were dissolved in sterile water or DMSO at 10 mg/mL, according to manufacturer's indications.

[4] = test system: E. coli ATCC 25922; format: cell-based, Escherichia coli
Text: as §1, §2, §3

[5] = test system: S. aureus 11 (MRSA clinical isolate); format: cell-based, Staphylococcus aureus; conditions: 11 ( clinical isolate, 24 h)
Text: as §1, §2, §3

[6] = test system: S. aureus G (MRSA clinical isolate); format: cell-based, Staphylococcus aureus; conditions: G ( clinical isolate, 24 h)
Text: as §1, §2, §3

[7] = test system: S. aureus E (MRSA clinical isolate); format: cell-based, Staphylococcus aureus; conditions: E ( clinical isolate, 24 h)
Text: as §1, §2, §3

[8] = test system: B. subtilis DSM 4181; format: cell-based, Bacillus subtilis; conditions: DSM 4181, 24 h
Text: as §1, §2, §3

[9] = test system: S. maltophilia ATCC 13637; format: cell-based, Stenotrophomonas maltophilia; conditions: ATCC 13637, 48 h
Text: as §1, §2
as §3, with “For bacteria, a mid-log phase bacterial suspension at 2.5 × 10^5 CFU/mL in MHB was used, and the microplates incubated at 37°C for 24h.” left out

[10] = test system: E. coli O18K1H7; format: cell-based, Escherichia coli; conditions: O18K1H7, 24 h
Text: as §1, §2, §3

[11] = test system: B. cenocepacia J2315; format: cell-based, Burkholderia cenocepacia; conditions: 48 h
Text: as §1, §2
as §3, with “For bacteria, a mid-log phase bacterial suspension at 2.5 × 10^5 CFU/mL in MHB was used, and the microplates incubated at 37°C for 24h.” left out

[12] = test system: S. typhimurium ATCC 14028; format: cell-based, Salmonella typhimurium; conditions: ATCC 14028, 24 h
Text: as §1, §2, §3

[13] = test system: C. albicans SC 5314; format: cell-based, Candida albicans; conditions: SC 5314, 48 h
Protocol: (§4) Fungal strains used were Candida albicans ATCC 90029 and SC5314. Fungi were grown on Sabouraud dextrose (SAB, Difco) agar plates at 30°C for 48h. The initial fungal inoculum was prepared by picking and suspending five colonies in 5 mL of sterile PBS.
as §3

[14] = test system: C. albicans ATCC 90029; format: cell-based, Candida albicans; conditions: ATCC 90029, 48 h
Protocol: as §4, §3

[15] = test system: K. pneumoniae ATCC 700603; format: cell-based, Klebsiella pneumoniae; conditions: ATCC 700603, 24 h
Text: as §1, §2, §3

[16] = test system: K. pneumoniae ATCC 13883; format: cell-based, Klebsiella pneumoniae; conditions: ATCC 13883, 24 h
Text: as §1, §2, §3

[17] = test system: E. faecalis ATCC 29212; format: cell-based, Enterococcus faecalis; conditions: ATCC 29212, 24 h
Text: as §1, §2, §3

[18] = test system: E. faecalis M (VREF clinical isolate); format: cell-based, Enterococcus faecalis; conditions: M (VREF clinical isolate, 24 h)
Text: as §1, §2, §3

[19] = MHB, 2.5 × 10^5 CFU/mL, 24h at 37°C, at least three independent experiments in duplicate

Molecule	MIC ([1]; ATCC 25923, 24 h)	MIC ([2]; ATCC 27853, 24 h) [mg/L]	Retention time [3] [min]	MIC ([4]; ATCC 25922, 24 h)	further results
CCCCCCCCCCCC(=O)N[C@@H](CCCNC(=N)N)C(=O)N[C@@H](C)C(=O)N[C@@H](Cc1c[nH]c2ccccc12)C(=O)N[C@@H](CCCNC(=N)N)C(N)=O [Lp-A, Lau-RAWR-NH2] (Lauroyl-RAWR-NH2)	6.25 µg/mL (≈ 8.13 µM)	25 (≈ 32.5 µM)	18.931	–	–
CCCCCCCCCCCC(=O)N[C@@H](CCCNC(=N)N)C(=O)N[C@@H](CS)C(=O)N[C@@H](Cc1c[nH]c2ccccc12)C(=O)N[C@@H](CCCNC(=N)N)C(N)=O [Lp-C, Lau-RCWR-NH2] (Lauroyl-RCWR-NH2)	50 µg/mL (≈ 62.4 µM)	200 (≈ 250 µM)	22.492	200 µg/mL (≈ 250 µM)	–
CCCCCCCCCC(=O)N[C@@H](CCCNC(=N)N)C(=O)N[C@@H](Cc1ccccc1)C(=O)N[C@@H](Cc1c[nH]c2ccccc12)C(=O)N[C@@H](CCCNC(=N)N)C(N)=O [Lp-F^Dec, Dec-RFWR-NH2] (Decanoyl-RFWR-NH2)	–	50 (≈ 61.2 µM)	22.639	25 µg/mL (≈ 30.6 µM)	–
CCCCCC(=O)N[C@@H](CCCNC(=N)N)C(=O)N[C@@H](Cc1ccccc1)C(=O)N[C@@H](Cc1c[nH]c2ccccc12)C(=O)N[C@@H](CCCNC(=N)N)C(N)=O [Lp-F^Hex, Hex-RFWR-NH2] (Hexanoyl-RFWR-NH2)	–	–	18.675	–	MIC ([1]; MHB, 2.5 × 10^5 CFU/mL, 24h at 37°C, at least three independent experiments in duplicate, two values when replicates differed by one well): >400 µg/mL; MIC [2, 19]: >400 mg/L; MIC [4, 19]: >400 µg/mL
CCCCCCCCCCCCCC(=O)N[C@@H](CCCNC(=N)N)C(=O)N[C@@H](Cc1ccccc1)C(=O)N[C@@H](Cc1c[nH]c2ccccc12)C(=O)N[C@@H](CCCNC(=N)N)C(N)=O [Lp-F^Myr, Myr-RFWR-NH2] (Myristoyl-RFWR-NH2)	6.25 µg/mL (≈ 7.16 µM)	50 (≈ 57.3 µM)	26.654	–	–
CCCCCCCC(=O)N[C@@H](CCCNC(=N)N)C(=O)N[C@@H](Cc1ccccc1)C(=O)N[C@@H](Cc1c[nH]c2ccccc12)C(=O)N[C@@H](CCCNC(=N)N)C(N)=O [Lp-F^Oct, Oct-RFWR-NH2] (Octanoyl-RFWR-NH2)	100 µg/mL (≈ 127 µM)	100 (≈ 127 µM)	17.974	–	–
CCCCCCCCCCCC(=O)N[C@@H](CCCNC(=N)N)C(=O)NCC(=O)N[C@@H](Cc1c[nH]c2ccccc12)C(=O)N[C@@H](CCCNC(=N)N)C(N)=O [Lp-G, Lau-RGWR-NH2] (Lauroyl-RGWR-NH2)	6.25 µg/mL (≈ 8.28 µM)	50 (≈ 66.2 µM)	18.415	25 µg/mL (≈ 33.1 µM)	–
CCCCCCCCCCCC(=O)N[C@@H](CCCNC(=N)N)C(=O)N[C@@H](Cc1c[nH]cn1)C(=O)N[C@@H](Cc1c[nH]c2ccccc12)C(=O)N[C@@H](CCCNC(=N)N)C(N)=O [Lp-H, Lau-RHWR-NH2] (Lauroyl-RHWR-NH2)	6.25 µg/mL (≈ 7.48 µM)	100 (≈ 120 µM)	21.476	25 µg/mL (≈ 29.9 µM)	–
CCCCCCCCCCCC(=O)N[C@@H](CCCNC(=N)N)C(=O)N[C@@H](CC(C)C)C(=O)N[C@@H](Cc1c[nH]c2ccccc12)C(=O)N[C@@H](CCCNC(=N)N)C(N)=O [Lp-L, Lau-RLWR-NH2] (Lauroyl-RLWR-NH2)	–	25 (≈ 30.8 µM)	23.079	25 µg/mL (≈ 30.8 µM)	–
CCCCCCCCCCCC(=O)N[C@@H](CCCNC(=N)N)C(=O)N[C@@H](CCCNC(=N)N)C(=O)N[C@@H](Cc1c[nH]c2ccccc12)C(=O)N[C@@H](CCCNC(=N)N)C(N)=O [Lp-R, Lau-RRWR-NH2] (Lauroyl-RRWR-NH2)	3.125 µg/mL (≈ 3.66 µM)	25 (≈ 29.3 µM)	21.651	12.5 µg/mL (≈ 14.6 µM)	MIC [5]: 3.125 mg/L (≈ 3.66 µM); MIC [6]: 3.125 mg/L (≈ 3.66 µM); MIC [7]: 3.125 mg/L (≈ 3.66 µM); MIC [8]: 1.56 mg/L (≈ 1.83 µM); MIC [9]: 12.5 mg/L (≈ 14.6 µM); MIC [10]: 25 mg/L (≈ 29.3 µM); MIC [11]: 50 mg/L (≈ 58.5 µM); MIC [12]: 100 mg/L (≈ 117 µM); MIC [13]: 50 mg/L (≈ 58.5 µM); MIC [14]: 1.56 mg/L (≈ 1.83 µM); MIC [15]: 100 mg/L (≈ 117 µM); MIC [16]: >100 mg/L; MIC [17]: 6.25 mg/L (≈ 7.32 µM); MIC [18]: 12.5 mg/L (≈ 14.6 µM)
CCCCCCCCCCCC(=O)N[C@@H](CCCNC(=N)N)C(=O)N[C@@H](CO)C(=O)N[C@@H](Cc1c[nH]c2ccccc12)C(=O)N[C@@H](CCCNC(=N)N)C(N)=O [Lp-S, Lau-RSWR-NH2] (Lauroyl-RSWR-NH2)	6.25 µg/mL (≈ 7.96 µM)	25 (≈ 31.8 µM)	16.117	25 µg/mL (≈ 31.8 µM)	–
CCCCCCCCCCCC(=O)N[C@@H](CCCNC(=N)N)C(=O)N[C@H](C(=O)N[C@@H](Cc1c[nH]c2ccccc12)C(=O)N[C@@H](CCCNC(=N)N)C(N)=O)C(C)C [Lp-V, Lau-RVWR-NH2] (Lauroyl-RVWR-NH2)	6.25 (6.25) μg/mL	–	19.317	12.5 (12.5) μg/mL	–
Lau-RFWR-NH2 [Lp-F^Lau]	–	–	23.592	–	–
